In article PMC4013053, “Identification of Selective Small Molecule Inhibitors of the Nucleotide-Binding Oligomerization Domain 1 (NOD1) Signaling Pathway” (PLoS ONE, 2014):

Target: NOD2 (Homo sapiens, UniProt Q9HC29)
Test: MDP-stimulated IL-8 secretion in primary human monocytes
Type: cell-based
Design: Monocytes were purified from heparinized human whole blood; endogenous in cells; host or cells: primary human blood monocytes
Procedure: Monocytes were purified from heparinized human whole blood by centrifugation on Ficoll (Histopaque 1077) followed by Percoll gradients. Monocyte purity was >95% by morphological assessment of Wright’s stained cytospins. Cells were seeded at 100,000 per well in 96-well plates in RPMI containing 10%HI-FBS, pre-incubated for 1 hour with compounds, and then stimulated with either 25 µg/mL Tri-DAP or 1 µg/mL MDP. The concentration of IL-8 in medium samples collected after 24-hour treatment was determined by HTRF whereas IL-1β, IL-6 and TNFα were measured using the MS6000 human pro-inflammatory-4 II tissue culture kit (Meso Scale Discovery).

Chain of NOD2 (Q9HC29 whole entry): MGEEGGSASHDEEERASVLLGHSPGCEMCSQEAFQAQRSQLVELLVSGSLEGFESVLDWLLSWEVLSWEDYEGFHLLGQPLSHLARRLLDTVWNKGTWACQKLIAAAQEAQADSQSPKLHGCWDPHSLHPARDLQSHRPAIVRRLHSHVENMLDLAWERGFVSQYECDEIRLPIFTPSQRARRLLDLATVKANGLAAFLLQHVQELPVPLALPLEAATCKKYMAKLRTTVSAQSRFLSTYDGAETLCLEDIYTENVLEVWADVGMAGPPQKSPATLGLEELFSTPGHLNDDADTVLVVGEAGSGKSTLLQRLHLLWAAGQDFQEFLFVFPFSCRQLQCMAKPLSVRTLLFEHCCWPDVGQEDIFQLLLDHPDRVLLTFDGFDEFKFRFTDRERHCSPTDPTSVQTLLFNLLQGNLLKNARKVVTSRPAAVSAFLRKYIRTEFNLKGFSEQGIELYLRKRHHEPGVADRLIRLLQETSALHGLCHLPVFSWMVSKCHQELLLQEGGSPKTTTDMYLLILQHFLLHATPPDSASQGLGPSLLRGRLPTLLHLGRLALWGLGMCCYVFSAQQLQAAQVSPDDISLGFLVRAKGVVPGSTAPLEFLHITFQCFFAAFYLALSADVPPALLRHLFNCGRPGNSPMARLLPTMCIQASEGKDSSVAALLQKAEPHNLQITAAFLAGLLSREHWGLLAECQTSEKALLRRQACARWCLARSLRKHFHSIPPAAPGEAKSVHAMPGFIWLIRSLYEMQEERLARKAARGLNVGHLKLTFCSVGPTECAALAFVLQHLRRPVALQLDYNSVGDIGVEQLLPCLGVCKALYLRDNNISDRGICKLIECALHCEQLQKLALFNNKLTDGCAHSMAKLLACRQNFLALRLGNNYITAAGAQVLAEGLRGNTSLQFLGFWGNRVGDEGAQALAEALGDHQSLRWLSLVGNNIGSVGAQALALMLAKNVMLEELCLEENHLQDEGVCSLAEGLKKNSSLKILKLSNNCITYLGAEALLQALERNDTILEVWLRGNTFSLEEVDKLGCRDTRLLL

## Cc1nc2ccccc2c(=O)n1-c1ccc(Cl)c(NS(=O)(=O)c2ccccc2F)c1 [Compound 22]
  effect on MDP induced IL-8 secretion: did not inhibit
